From patent US11149031B2, “Substituted N-(3-fluoropropyl)-pyrrolidine compounds, processes for their preparation and therapeutic uses thereof” (SANOFI, priority 2016, dated 2021)

How the values were obtained:
[1] = target: His6-ERα298-554 WT (ERα ligand-binding domain) (Homo sapiens (Human), UniProt P03372); experiment: Test A: biochemical antagonist activity, LanthaScreen TR-FRET ERα coactivator assay, WT; details: protocol with 3 nM estradiol; read-out: Antagonism WT IC50
How it was run: (§1)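 IC50 values come from a 4-parameter logistic fit of the 520:495 nm TR-FRET ratio after overnight room-temperature incubation. The mix held 0.5 nM ERα 298–554 LBD, Tb-labelled anti-His6 antibody, 250 nM PGC1a peptide and 3 nM or 10 nM estradiol, pH 7.4 phosphate buffer with DTT.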

[2] = target: His6-ERα298-554 D538G mutant (ERα ligand-binding domain) (Homo sapiens (Human), UniProt P03372, D538G); experiment: Test A: biochemical antagonist activity, LanthaScreen TR-FRET ERα coactivator assay, D538G mutant; details: protocol with 3 nM estradiol; read-out: Antagonism D538G IC50
Sequence of His6-ERα298-554 D538G mutant (ERα ligand-binding domain) (P03372 298-554 D538G): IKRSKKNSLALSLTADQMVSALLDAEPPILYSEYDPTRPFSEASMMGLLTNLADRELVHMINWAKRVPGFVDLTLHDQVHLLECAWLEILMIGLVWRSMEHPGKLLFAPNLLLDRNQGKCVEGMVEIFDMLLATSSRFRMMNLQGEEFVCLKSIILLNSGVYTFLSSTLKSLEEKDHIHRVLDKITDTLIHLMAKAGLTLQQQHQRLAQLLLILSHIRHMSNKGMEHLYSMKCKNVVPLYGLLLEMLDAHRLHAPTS
How it was run: as §1

[3] = target: His6-ERα298-554 Y537S mutant (ERα ligand-binding domain) (Homo sapiens (Human), UniProt P03372, Y537S); experiment: Test A: biochemical antagonist activity, LanthaScreen TR-FRET ERα coactivator assay, Y537S mutant; details: protocol with 3 nM estradiol; read-out: Antagonism Y537S IC50
Sequence of His6-ERα298-554 Y537S mutant (ERα ligand-binding domain) (P03372 298-554 Y537S): as the sequence (P03372 298-554 D538G) above, with Y240S, G241D counted along it
How it was run: as §1

[4] = target: ERα in MCF7 cells (Homo sapiens (Human), UniProt P03372); experiment: Test C: estrogen receptor degradation activity, ERα in cell western assay in MCF7 cells; assay type: cell-based; details: for DC50: 4 hours post compound addition, ERα in cell western, read-out: Degradation IC50; for % Degradation at 3 μM: 4 hours, relative to fulvestrant
Sequence of ERα in MCF7 cells (P03372 whole entry): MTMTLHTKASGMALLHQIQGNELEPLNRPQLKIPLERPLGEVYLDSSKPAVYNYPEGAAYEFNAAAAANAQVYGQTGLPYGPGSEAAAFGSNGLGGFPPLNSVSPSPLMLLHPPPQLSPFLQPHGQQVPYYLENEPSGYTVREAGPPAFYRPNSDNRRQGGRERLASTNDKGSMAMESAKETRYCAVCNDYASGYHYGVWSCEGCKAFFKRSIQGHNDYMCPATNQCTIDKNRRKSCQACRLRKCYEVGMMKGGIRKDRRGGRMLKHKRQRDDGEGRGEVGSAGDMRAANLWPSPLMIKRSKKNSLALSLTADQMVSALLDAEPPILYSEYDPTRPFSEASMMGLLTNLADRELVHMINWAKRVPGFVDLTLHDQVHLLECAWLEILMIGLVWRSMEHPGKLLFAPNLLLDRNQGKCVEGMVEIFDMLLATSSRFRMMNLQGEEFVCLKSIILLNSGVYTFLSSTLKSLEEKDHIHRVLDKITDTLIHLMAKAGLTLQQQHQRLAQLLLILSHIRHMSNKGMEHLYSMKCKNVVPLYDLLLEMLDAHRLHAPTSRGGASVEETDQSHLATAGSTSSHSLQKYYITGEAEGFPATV
How it was run: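 Steps: seed MCF7 in phenol red-free medium containing 5% charcoal-dextran stripped FBS; next day add compound, final 3–0.000018 μM; after 4 h fix with 5% formalin plus 0.1% Triton; stain ERα overnight, then secondary at 37 °C for 60 min with Syto-64 at 2 μM; scan green and red intensities.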

Sequence of His6-ERα298-554 WT (ERα ligand-binding domain) (P03372 298-554): as the sequence (P03372 298-554 D538G) above, with G241D counted along it

SMILES	IC50 [1] [nM]	IC50 [2] [nM]	IC50 [3] [nM]	DC50 [4] [nM]	% Degradation at 3 μM [4] [%]
Oc1ccc2c(c1)OCCC(c1ccc(F)cc1Cl)=C2c1ccc(O[C@H]2CCN(CCCF)C2)cc1 [Example 92, 4-(2-chloro-4-fluoro-phenyl)-5-[4-[(3S)-1-(3-fluoropropyl)pyrrolidin-3-yl]oxyphenyl]-2,3-dihydro-1-benzoxepin-8-ol]	7	59	22	0.5	96
Oc1ccc2c(c1)C(c1ccc(O[C@H]3CCN(CCCF)C3)cc1)=C(c1ccc3[nH]ccc3c1)CC2 [Example 5, 8-[4-[(3S)-1-(3-fluoropropyl)pyrrolidin-3-yl]oxyphenyl]-7-(1H-indol-5-yl)-5,6-dihydronaphthalen-2-ol]	28	209	72	0.5	81
Oc1ccc2c(c1)OCCC(c1ccc3[nH]ccc3c1)=C2c1ccc(O[C@H]2CCN(CCCF)C2)cc1 [Example 93, 5-[4-[(3S)-1-(3-fluoropropyl)pyrrolidin-3-yl]oxyphenyl]-4-(1H-indol-5-yl)-2,3-dihydro-1-benzoxepin-8-ol]	8	59	26	0.4	87
Cc1cc(F)ccc1C1=C(c2ccc(O[C@H]3CCN(CCCF)C3)cc2)c2ccc(O)cc2OCC1 [Example 100, 4-(4-fluoro-2-methyl-phenyl)-5-[4-[(3S)-1-(3-fluoropropyl)pyrrolidin-3-yl]oxyphenyl]-2,3-dihydro-1-benzoxepin-8-ol]	7	54	25	0.2	88
Oc1ccc2c(c1)C(c1ccc(O[C@H]3CCN(CCCF)C3)cc1)=C(c1cccc(F)c1Cl)CCS2 [Example 170, 4-(2-chloro-3-fluoro-phenyl)-5-[4-[(3S)-1-(3-fluoropropyl)pyrrolidin-3-yl]oxyphenyl]-2,3-dihydro-1-benzothiepin-7-ol]	18	129	82	1	81
O=S1(=O)CCC(c2ccc(F)cc2Cl)=C(c2ccc(O[C@H]3CCN(CCCF)C3)cc2)c2ccc(O)cc21 [Example 229, 4-(2-chloro-4-fluoro-phenyl)-5-[4-[(3S)-1-(3-fluoropropyl)pyrrolidin-3-yl]oxyphenyl]-1,1-dioxo-2,3-dihydro-1λ^6-benzothiepin-8-ol]	12	85	34	0.2	89
Oc1ccc2c(c1Cl)OCCC(c1ccc3c(c1)NCC3)=C2c1ccc(O[C@H]2CCN(CCCF)C2)cc1 [Example 125, 9-chloro-5-[4-[(3S)-1-(3-fluoropropyl)pyrrolidin-3-yl]oxyphenyl]-4-indolin-6-yl-2,3-dihydro-1-benzoxepin-8-ol]	190	1340	945	4	84
Oc1ccc2c(c1Cl)OCCC(c1cccc3c1CCN3)=C2c1ccc(O[C@H]2CCN(CCCF)C2)cc1 [Example 128, 9-chloro-5-[4-[(3S)-1-(3-fluoropropyl)pyrrolidin-3-yl]oxyphenyl]-4-indolin-4-yl-2,3-dihydro-1-benzoxepin-8-ol]	96	1210	933	14	72
Oc1ccc2c(c1)SCCC(c1ccc3[nH]ccc3c1)=C2c1ccc(O[C@H]2CCN(CCCF)C2)cc1 [Example 160, 5-[4-[(3S)-1-(3-fluoropropyl)pyrrolidin-3-yl]oxyphenyl]-4-(1H-indol-5-yl)-2,3-dihydro-1-benzothiepin-8-ol]	3	13	8	0.2	75
Cc1c(F)cccc1C1=C(c2ccc(O[C@H]3CCN(CCCF)C3)cc2)c2ccc(O)cc2OCC1 [Example 126, 4-(3-fluoro-2-methyl-phenyl)-5-[4-[(3S)-1-(3-fluoropropyl)pyrrolidin-3-yl]oxyphenyl]-2,3-dihydro-1-benzoxepin-8-ol]	5	94	55	0.3	91
Oc1ccc2c(c1)SCCC(c1ccc(Cl)c(F)c1)=C2c1ccc(O[C@H]2CCN(CCCF)C2)cc1 [Example 161, 4-(4-chloro-3-fluoro-phenyl)-5-[4-[(3S)-1-(3-fluoropropyl)pyrrolidin-3-yl]oxyphenyl]-2,3-dihydro-1-benzothiepin-8-ol]	6	31	22	0.7	93
Cc1c(Cl)cccc1C1=C(c2ccc(O[C@H]3CCN(CCCF)C3)cc2)c2ccc(O)c(C)c2OCC1 [Example 112, 4-(3-chloro-2-methyl-phenyl)-5-[4-[(3S)-1-(3-fluoropropyl)pyrrolidin-3-yl]oxyphenyl]-9-methyl-2,3-dihydro-1-benzoxepin-8-ol]	91	838	543	4	87
Cc1c(Cl)cccc1C1=C(c2ccc(O[C@H]3CCN(CCCF)C3)cc2)c2ccc(O)cc2S(=O)(=O)CC1 [Example 235, 4-(3-chloro-2-methyl-phenyl)-5-[4-[(3S)-1-(3-fluoropropyl)pyrrolidin-3-yl]oxyphenyl]-1,1-dioxo-2,3-dihydro-1λ^6-benzothiepin-8-ol]	13	100	83	0.9	95
Oc1ccc2c(c1F)OCCC(c1ccc3cc[nH]c3c1)=C2c1ccc(O[C@H]2CCN(CCCF)C2)cc1 [Example 131, 9-fluoro-5-[4-[(3S)-1-(3-fluoropropyl)pyrrolidin-3-yl]oxyphenyl]-4-(1H-indol-6-yl)-2,3-dihydro-1-benzoxepin-8-ol]	19	340	276	3	83
Cc1ccc(C2=C(c3ccc(O[C@H]4CCN(CCCF)C4)cc3)c3ccc(O)cc3S(=O)(=O)CC2)c(F)c1 [Example 230, 4-(2-fluoro-4-methyl-phenyl)-5-[4-[(3S)-1-(3-fluoropropyl)pyrrolidin-3-yl]oxyphenyl]-1,1-dioxo-2,3-dihydro-1λ^6-benzothiepin-8-ol]	14	99	41	0.8	93
Oc1ccc2c(c1)C(c1ccc(O[C@H]3CCN(CCCF)C3)cc1)=C(c1ccc(F)cc1Cl)CCS2 [Example 175, 4-(2-chloro-4-fluoro-phenyl)-5-[4-[(3S)-1-(3-fluoropropyl)pyrrolidin-3-yl]oxyphenyl]-2,3-dihydro-1-benzothiepin-7-ol]	20	116	65	0.3	83
Cc1c(Cl)cccc1C1=C(c2ccc(O[C@H]3CCN(CCCF)C3)cc2)c2cc(O)ccc2SCC1 [Example 173, 4-(3-chloro-2-methyl-phenyl)-5-[4-[(3S)-1-(3-fluoropropyl)pyrrolidin-3-yl]oxyphenyl]-2,3-dihydro-1-benzothiepin-7-ol]	21	145	87	4	82
CCOc1ccc(C2=C(c3ccc(O[C@H]4CCN(CCCF)C4)cc3)c3ccc(O)cc3OCC2)cn1 [Example 127, 4-(6-ethoxy-3-pyridyl)-5-[4-[(3S)-1-(3-fluoropropyl)pyrrolidin-3-yl]oxyphenyl]-2,3-dihydro-1-benzoxepin-8-ol]	3	49	24	0.8	90
